Source: patent publication US9446087B2, “Anti-resorptive and bone building dietary supplements and methods of use” (priority 2006, dated 2016)
Values joined by “and” are separate entries in the source; they are usually repeats but may differ in a detail not shown here. Equal entries are not always repeated. Marks after values point to notes of the source that are not given here. Values belong to the compound of their own block, whether it stands above or below them.

Experiments:
[1] = test system: BMP-2; test: BMP-2 Gene Expression Assay (MG-63 cells, real time PCR); assay type: cell-based, human; details: 10 μg/ml
Procedure: It is also possible to test for BMP-2 gene expression and protein expression using assays similar to those described above for testing BMP-2 promoter activity. In particular, for gene expression, the human osteosarcoma cell line, MG-63 (ATCC# CRL-1427), is maintained in phenol-red containing MEM (as recommended by ATCC) at 37° C. and 5% CO2. Twenty-four hours prior to experimentation, 3×10^5 cells are seeded in 12-well plates in phenol-red free MEM. […] After an overnight incubation, RNA is extracted using conventional trizol/guanidine isothiocyanate based lysis. The isolated RNA was digested with RNase-free DNase I to remove any DNA contamination and then reverse transcribed to cDNA using random hexamer as well as oligo(dT) primers according to the manufacturer's instructions (Stratagene). Quantitative real time PCR is performed using FAM-labeled specific primers for BMP-2 and HEX-labeled specific primers for 18S rRNA (Invitrogen). All reactions are carried out in triplicate and the relative amount of mRNAs in treated versus untreated samples is calculated using the comparative CT method established by Applied Biosystems (2001). Gene expression changes of 2-fold or greater are considered significant.

[2] = test system: BMP-2 protein; test: BMP-2 Protein Expression Assay (Hu09 cells, ELISA); assay type: cell-based
Procedure: The cells are treated with different proteasome inhibitors for 24 hours. After incubation, the conditioned media is transferred into microcentrifuge tubes and centrifuged at 14,000 rpm for 2-3 minutes to remove cellular debris. The concentration of BMP-2 protein in the supernatant is then determined using the standard BMP-2 Elisa Kit (R&D ELISA KIT DBP200). Recombinant hBMP-2 (R&D) is used as a standard.

[3] = test system: Neonatal murine calvaria; test: Calvarial Assay to Measure Bone Growth; assay type: cell-based, Swiss white mice
Procedure: Neonatal murine calvaria from 4 day old Swiss white mice are excised, placed into BGJ media (Sigma), and cut in half along the midline suture. One milliliter of BGJ media supplemented with 0.1% bovine serum albumin (BSA) is added to each well of a 12 well tissue culture plate (Costar) to which the relevant factors or vehicles are added. Each half calvaria is placed on a stainless steel grid in the above media at the media/air interface. Usually 4 bones per experimental group are used. […] Factors to be tested are added on Day 0 (the day of dissection) and media is changed at 24 and 96 hours (if a 7 day assay is required). Calvaria are maintained in humidified air (5% Co2), at 37° C. Following the period of incubation, the calvaria are then removed and fixed overnight in 10% formalin. The calvaria are then decalcified in 14% EDTA overnight and are then embedded in paraffin wax. Sections are then cut, using a standard microtome, along the midline suture to reveal the coronal suture and the region posterior to this suture. Four micrometer sections were taken initially and at two sequential […] depths. Sections are placed on coated glass slides (Superfrost plus, Fisher Scientific, Pittsburgh, Pa.) and stained with hematoxylin and eosin. The total and new bone area (expressed as mm^2), suture thickness (mm), and number of cells lining the bone surface are determined in the section posterior to the […] suture. Histomorphometric analysis is performed using the Osteomeasure System (Osteometrics INC, Atlanta, Ga.).

[4] = test system: calvaria (skull bones) from 4 day old pups; test: Calvarial Assay to Measure Inhibition of Bone Resorption (45Ca release); assay type: cell-based, CD-1 mice
Procedure: In order to label cells of newborn mice in utero, pregnant CD-1 female mice (at timed day 15) were injected with ^45Ca (25 uCi/mouse). […] The bones were incubated at 37° C. in a 5% CO2 humidified incubator for a period of 24 hours following which they were transferred to wells containing 1 ml media with factors added (IL-1, PTH and or compounds.) The treated bones were incubated under the above conditions for a further 72 hours. […] The results were expressed as % ^45Ca release and can be further reported as T/C ratios. For some factors and compounds, modification of this procedure can be used. As most of the osteoclasts are formed in the calvaria following the preincubation period, the factors that affect osteoclast formation may have a greater effect during the preincubation period. Thus, for a number of the compounds, they were included in the preincubation media.

[5] = test system: RANK-L; test: Inhibition of RANK-L production/release (IL-1b stimulated MG-63 cells, ELISA); assay type: cell-based, human
Procedure: Weigh between 150 to 250 mg of each ingredient into a 15 ml conical bottomed tube. […] For solvent control, mix 1.5 ml DMSO, 0.9 ml ethanol, and 0.6 ml water. Vortex thoroughly. Sonicate for 10 minute in water bath, room temperature. Vortex thoroughly again. Dilute ingredient stocks in fresh phenol red-free media. Human osteosarcoma cell line, MG-63 (ATCC #CRL-1427), is maintained in phenol-red containing MEM (as recommended by ATCC) at 37° C. and 5% CO2. Twenty-four hours prior to experimentation, 3×10^5 cells are seeded in 12-well plates in phenol-red free MEM. […] Stock solution of TGF-beta is 30 μg/ml (from R&D Systems, cat #100-B-001). After pretreatment incubation period, […] IL-1b (Calbiochem (catalog #407615) and stock solution at 10 μg/ml, cat #407615) were added to the cell cultures for 18 hours at 37° C. Supernatant media from the treated and stimulated cells were removed and total RANK-L proteins were measured using RANK-L ELISA (in triplicate) as described by manufacturer (from APOTECH, catalog #APO-54N-016-k101). The resulting protein quantity was compared to that of media (null) treated stimulated cells to determine percent decrease in total RANK-L protein.

[6] = test system: BMP-2 promoter; test: BMP2 Promoter assay (2T3-BMP2-Luciferase cells, luciferase); assay type: cell-based, murine
[7] = test system: type IV collagenase protein (matrix metalloproteinase-9/MMP9); test: MMP9 protein expression in IL-1B stimulated keratinocyte/fibroblast co-culture; assay type: cell-based; details: 10 ng/ml, stimulus alone; untreated 1.0
Procedure: Keratinocytes and fibroblasts were co-cultured in DMEM containing 0.5% BSA. Co-cultures were exposed to various concentrations of punicalagins (ranging from 0.1%-10%) were extracted from pomegranates. Specifically, the ability of the pomegranate extracts to inhibit type IV collagenase protein (matrix metalloproteinase-9/MMP9) expression at concentrations of 1.0 μg/ml, 10 μg/ml, and 100 μg/ml were tested. Following exposure to the pomegranate extracts, the co-culture cells were stimulated with 10 ng/ml of IL-1B for 18 hours. Following stimulation with IL-1B for 18 hours, and MMP9 concentration was determined in the media as shown below in Table 14.

[8] = test system: RANK-L; test: RANK-L gene expression (IL-1b stimulated MG63 cells, qPCR); assay type: cell-based, human; details: 3 μg/ml, stimulus alone
Procedure: Punicalagin test samples are extracted from pomegranates, including from pomegranate peels, skins, fleshy fruit, and seeds using 100% DMSO at 100 mg/ml. Particulate matter in the extraction is not removed. The punicalagin test samples are diluted in MEM without phenol red (estrogenic) and 0.1% FBS to lower background signaling to ten times the final concentrations. Final DMSO concentrations are kept below 0.2% and are kept constant during treatments. DMSO solvent control is used in the untreated group.
MG63 cells (ATCC #CRL-1472), a human-derived osteosarcoma cell line, are plated at 200,000 cells per well in a 12 well plate with phenol red free MEM at 10% FBS. The next day the media is changed to phenol red free MEM at 0.1% FBS. […]
[…] The treated cells the stimulus, IL-1b, are then allowed to incubate for 16 hours at 37° C.
After 16 hours the cells are lysed and the RNA is extracted from the cells with the RNasy purification kit (Qiagen). RNA is reverse transcribed to cDNA and quantified by qPCR using 2-step qRT-PCR reagents (Invitrogen), and 4 μL of purified RNA. Annealing temperature is 57° C. in the Stratagene Mx4000 with 1 μL of RANK-L gene specific primers in a 50 μL reaction (10 μM initial concentration; HLUX3013920, Invitrogen Inc.).
RANK-L and GAPDH gene expression Ct data are obtained. RNA is quantified with adjustments for GAPDH expression. […]

Compound: CC(C)Oc1ccc2c(=O)c(-c3ccccc3)coc2c1 [I, 7-isopropoxy isoflavone]
- Fold Change in Gene Expression [1]: No effect
- BMP-2 Protein Expression ([2]; 1 μg/ml): 2.4 FOLD
- BMP-2 Protein Expression ([2]; 10 μg/ml): 1.8 FOLD
- BMP-2 Protein Expression ([2]; 100 μg/ml): 1.8 FOLD
- Calvarial Assay Results- Bone formation ([3]; 1 μg/ml): 2.44 ± 0.66 mm^2 × 10^−3
- Calvarial Assay Results- Bone formation ([3]; 10 μg/ml): 6.05 ± 1.12 mm^2 × 10^−3
- Calvarial Assay Results- Bone formation ([3]; 100 μg/ml): 7.04 ± 0.69^a mm^2 × 10^−3
- Inhibition of Bone Resorption/Release of Ca^2+, % Release ([4]; IL-1 + 1 μg/ml): 38.00 ± 1.41 % Release
- Inhibition of Bone Resorption/Release of Calcium By Combinations of Extracts, % Release ([4]; IL-1 + 1 μg/ml): 29.75 ± 4.54 % Release
- Inhibition of Bone Resorption/Release of Ca^2+, % Release ([4]; IL-1 + 10 μg/ml): 32.50 ± 3.30 % Release
- Inhibition of Bone Resorption/Release of Calcium By Combinations of Extracts, % Release ([4]; IL-1 + 10 μg/ml): 30.25 ± 4.03 % Release
- Inhibition of Bone Resorption/Release of Ca^2+, % Release ([4]; IL-1 + 100 μ/ml): 19.25 ± 1.03^a % Release
- Inhibition of Bone Resorption/Release of Calcium By Combinations of Extracts, % Release ([4]; IL-1 ± 100 μg/ml): 17.50 ± 1.66^a % Release
- RANK-L inhibition (%) ([5]; 10 μg/ml, listed as Ipriflavone (Ostivone)): 0 ± 4.3% and 2.8 ± 3.9% and 0 ± 2.5%
- % Change in Production/Release Levels (compared to untreated control) ([5]; tested at 1 μg/ml): No effect
- BMP2 Promoter assay (ratio to control) ([6]; 0.05 μg/ml): 1.00 FOLD
- BMP2 Promoter assay (ratio to control) ([6]; 0.1 μg/ml): 0.90 FOLD
- BMP2 Promoter assay (ratio to control) ([6]; 0.2 μg/ml): 1.00 FOLD
- BMP2 Promoter assay (ratio to control) ([6]; 0.4 μg/ml): 0.90 FOLD
- BMP2 Promoter assay (ratio to control) ([6]; 0.8 μg/ml): 1.20 FOLD
- BMP2 Promoter assay (ratio to control) ([6]; 1.6 μg/ml): 1.50 FOLD
- BMP2 Promoter assay (ratio to control) ([6]; 3.2 μg/ml): 2.10 FOLD
- BMP2 Promoter assay (ratio to control) ([6]; 6.3 μg/ml): 2.90 FOLD
- BMP2 Promoter assay (ratio to control) ([6]; 12.5 μg/ml): 3.60 FOLD
- BMP2 Promoter assay (ratio to control) ([6]; 25 μg/ml): 3.90 FOLD
- BMP2 Promoter assay (ratio to control) ([6]; 50 μg/ml): 4.40 FOLD
- BMP2 Promoter assay (ratio to control) ([6]; 100 μg/ml): 4.50 FOLD

- MMP9 protein expression (fold of untreated) [7]: 1.65
Compound: IL1B: IL-1b stimulus (Calbiochem)
- RANK-L Expression (fold increase) [8]: 3.3 ± 0 fold increase
